From patent US6699895B2, “2-aminothiazoline derivatives and process for preparing the same” (Aventis Pharma S.A., priority 2000, dated 2004) come the findings set out here.

What is called melting point is the temperature of the solid-liquid transition. On to `Cl.NC1=N[C@H](Cc2cccs2)CS1`, for which the melting point fell in the range of 125 to 127 °C.
